Experimental data from patent US20230312587A1, “PTERIDINONE COMPOUNDS AND USES THEREOF” (Vertex Pharmaceutical Incorporated, priority 2018, published 2023).

Legend:
[1] = test system: β-catenin-TCF-mediated reporter transcription activity in Colo 205 cells; assay: Colo 205 reporter assay (TCF/LEF luciferase); assay type: cell-based; conditions: Homo sapiens, COLO 205, 5 h, Colo 205 TCF/LEF luciferase reporter, five hours after addition of compound; read-out: TCF reporter Colo205 IC50
Procedure, shortened: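 Luciferase signal from a TCF/LEF-driven reporter, stably integrated in Colo 205 colon cancer cells, was measured 5 h after compound addition.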

[2] = test system: Colo205-TCF/LEF-Luciferase (Luc) tumor; assay: In vivo inhibition of TCF/LEF reporter activity in Colo-205 tumors; set-up: concentration or dose not given beside the values; conditions: TCF/LEF luciferase reporter in Colo-205 tumors, nu/nu mice, oral gavage
Protocol: Colo205-TCF/LEF-Luciferase (Luc) tumor cells were expanded in complete DMEM cell culture media [DMEM (Life Technologies, product #11960-051) media supplemented with 10% FBS (Hyclone, catalog #SH30071.03), antimycotic/antibiotic (Life Technologies, product #15240-062), and Glutamax (Life Technologies, product #35050-061)] with 1 ug/ml puromycin. After reaching confluency/high density, the loosely attached cells in media were transferred from the flask to 50 ml conical tubes. Tumor cells adhered to plastic were detached with trypsin and combined with cells in the conical tubes. The tumor cells were triturated, counted, and pelleted by centrifugation. Cell pellets were resuspended in 0.9% injectable saline (6×10^7 cells/ml). A 50 ul volume (3×10^6 cells) was injected subcutaneously in the flanks of 4-6 wk old female nu/nu mice (Charles River Laboratories). Approximately 13-16 days after implantation, tumors between 200-500 mm^3 were selected (based on caliper measurements and applying the formula […]) and randomized into groups of n=4. Mice were dosed by oral gavage with compound dissolved in 1:3:5:1 EtOH:DMSO:PEG-400:H2O at a rate of 10 ml/kg or 1:3:5:1 EtOH:DMSO:PEG-400:H2O alone (Vehicle Control). Tumors were collected from mice euthanized by CO2 inhalation and snap frozen in liquid nitrogen. Tumors were stored in a −80 degrees C. freezer until they were processed.
Tumors were thawed on ice and homogenized in cold Lysis Buffer (20 mM Tris-HCl (pH 7.5), 150 mM NaCl, 1 mM Na2EDTA, 1 mM EGTA, 1% Triton, 2.5 mM sodium pyrophosphate, 1 mM beta-glycerophosphate, 1 mM Na3VO4, 1 μg/ml leupeptin, 0.05% SDS) using a closed tissue grinder system (Fisher Scientific, Cat #02-542-09) on ice according to manufacturer's instructions. For 100 mg of tumor, 500 uL of Lysis Buffer was used. Tumor lysate was transferred to a pre-chilled microcentrifuge tube and centrifuged at 10,000×g for 10 minutes at 4 degrees C. Supernatant was transferred to a new pre-chilled microcentrifuge tube and was used immediately for analysis of protein content and luciferase activity.
Protein content of tumor lysate supernatant was determined using the BCA assay (Life Technologies Cat #23225). Luciferase activity of tumor lysate supernatant was determined by addition of Steady-Glo luminescence reagent (Promega, Cat #E2550) according to manufacturer's instructions and measurement on a Pherastar luminescence plate reader (BMG Labtech). Luciferase activity was normalized to protein content.

Colo-205 cells = assay: Calcium flux assay (FLIPR Calcium 5); assay type: cell-based; conditions: Homo sapiens, COLO 205, 0.6 h, FLIPR Calcium 5, measured over 36 minutes
Protocol: Compounds described herein induced ER stress by causing intracellular calcium flux. Calcium flux was measured in Colo-205 cells using the FLTPR® Calcium 5 Assay Kit according to manufacter's protocol (Molecular Devices, Cat. #R8186) on a FLIPR3 system (Molecular Devices). Calcium flux is measured over 36 minutes. The Colo-205 calcium flux assay data are summarized in Table 47: A<0.6 μM; 0.6 μM≤B<2.0 μM; 2.0 μM≤C<10.0 μM; D≥10.0 μM.

[3] = target: HEK293 membranes over-expressing WFS-1 (Homo sapiens (Human), UniProt O76024); assay: Radioligand displacement assay (tritiated Compound 136 probe); assay type: binding; conditions: displacement of tritiated Compound 136
HEK293 membranes over-expressing WFS-1, sequence (O76024 whole entry): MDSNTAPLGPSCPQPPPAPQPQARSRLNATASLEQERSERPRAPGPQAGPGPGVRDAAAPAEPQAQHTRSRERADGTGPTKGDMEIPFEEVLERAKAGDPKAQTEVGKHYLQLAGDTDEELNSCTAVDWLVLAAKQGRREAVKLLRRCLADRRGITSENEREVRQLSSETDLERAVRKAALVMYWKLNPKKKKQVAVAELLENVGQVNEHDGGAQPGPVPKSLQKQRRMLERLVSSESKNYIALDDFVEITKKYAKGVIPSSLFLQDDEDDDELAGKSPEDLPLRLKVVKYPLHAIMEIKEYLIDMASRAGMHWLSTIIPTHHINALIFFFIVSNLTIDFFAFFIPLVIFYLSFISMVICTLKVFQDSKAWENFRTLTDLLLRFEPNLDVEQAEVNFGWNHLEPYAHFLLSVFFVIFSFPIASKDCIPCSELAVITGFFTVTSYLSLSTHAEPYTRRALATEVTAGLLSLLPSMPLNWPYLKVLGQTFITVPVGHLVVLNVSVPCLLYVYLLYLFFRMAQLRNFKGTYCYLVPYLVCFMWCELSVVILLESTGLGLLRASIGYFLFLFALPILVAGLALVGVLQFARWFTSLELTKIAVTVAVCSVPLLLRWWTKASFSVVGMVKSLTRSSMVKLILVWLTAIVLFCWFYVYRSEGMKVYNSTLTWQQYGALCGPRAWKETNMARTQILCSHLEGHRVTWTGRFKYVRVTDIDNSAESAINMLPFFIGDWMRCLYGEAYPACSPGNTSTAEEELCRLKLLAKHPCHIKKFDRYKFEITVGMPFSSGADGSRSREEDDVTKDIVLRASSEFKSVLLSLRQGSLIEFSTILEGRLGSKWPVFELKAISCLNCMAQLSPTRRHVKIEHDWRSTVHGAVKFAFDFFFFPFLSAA
Protocol: Cell pellets were re-suspended in 15 times packed cellular volume in 4° C. hypotonic lysis buffer (10 mM HEPES, pH 7.5 containing 1×Protease inhibitor, 0.5 mM EDTA and 2 mM DTT). Re-suspended cells were homogenized with 6-8 strokes in a dounce homogenizer kept on ice. Lysates were centrifuged at 500×G for 15 minutes at 4° C. without brake to decelerate rotor. Following centrifugation, remove the supernatant to a fresh tube and place on ice (Supernatant 1). Repeat the above steps on the lysed cell pellet using 0.5 the original volume of hypotonic lysis buffer and remove the 500× G supernatant (Supernatant 2) and combine with Supernatant 1. Transfer the combined supernatants to a 45-Ti ultracentrifuge tube and centrifuge at 100,000× G for 30 minutes. Following ultracentrifugation, carefully remove the supernatant and discard. Resuspend the 100,000× G pellet in cold resuspension buffer (10 mM HEPES, pH 7.5, 300 mM NaCl containing 1× Protease inhibitor, 1× EDTA and 2 mM DTT). Centrifuge sample at 500× G for 10 minutes with no brake and remove any cloudy, flocculent material. Resuspend pellet in resuspension buffer to approximately 2 mg/mL of protein concentration for use in radioligand binding assay and immunoblotting.
The binding affinities of compounds were determined by measuring the competitive displacement of a tritiated Compound 136 probe from purified HEK293 membranes over-expressing WFS-1. The data for the radioligand displacement assay are summarized in Table 47: A<0.06 μM; 0.06 μM≤B<0.6 μM; 0.6 μM≤C<3.0 μM; D≥3.0 μM.
The probe Kd was determined by titrating tritiated probe under the standard assay conditions plus and minus excess unlabeled probe and fitting the resulting data to a “One site—Total and nonspecific binding” model in Graphpad Prism, version 6.0, San Diego, CA, US. Initially, 0.25 μl of compound dissolved in DMSO at varying concentrations was dispensed to a 384 well plate. Membrane and probe were both prepared at 2× their final concentration in 1× assay buffer as described above. 25 μL of membrane was added to the wells and incubated for 10 minutes. 25 μL of diluted probe was then added to the wells. The assay was incubated for 90 minutes at room temperature. The entire assay volume was then transferred to Millipore GF/B 384-well plates pretreated with 15 μL 0.5% PEI. The filter plates were washed 3× with 75 μL 25 mM TRIS, ph7.5, 0.1% BSA and then dried overnight. Following addition of 45 μL UltimaGold scintillant, the samples were counted in a Perkin Elmer Topcount. The radioactivity remaining is a measure of bound probe. From the bound probe vs concentration of compound titration curve, the IC50 is determined by fitting the data to a standard 3 parameter IC50 model using either Graphpad Prism, version 6.0, San Diego, CA, US, or using GeneData Analyzer, Basel, Switzerland.

| SMILES | IC50 [1] [nM] | EC50 (Colo-205 cells) [nM] | IC50 [3] [nM] | Percent Remaining Activity at 8 hrs after Dosing [2] [%] |
| --- | --- | --- | --- | --- |
| Cc1nc(NCc2cnn(Cc3ccc(Cl)nc3)c2)nc2c1NC(=O)[C@H](C1CC1)N2C [Compound 434, (7S)-2-(((1-((6-chloropyridin-3-yl)methyl)-1H-pyrazol-4-yl)methyl)amino)-7-cyclopropyl-4,8-dimethyl-7,8-dihydropteridin-6(5H)-one] | < 300 |  |  | 26 |
| Cc1nc(NCc2cnn(Cc3cc(F)c(F)c(F)c3)c2)nc2c1NC(=O)[C@H](C(C)C)N2C [Compound 449, (S)-7-isopropyl-4,8-dimethyl-2-(((1-(3,4,5-trifluorobenzyl)-1H-pyrazol-4-yl)methyl)amino)-7,8-dihydropteridin-6(5H)-one] | < 300 |  |  | 22 |
| CO[C@H](C)[C@H]1C(=O)Nc2c(C)nc(NCc3cnn(Cc4ccc(Cl)nc4)c3)nc2N1C [Compound 499, (S)-2-(((1-((6-chloropyridin-3-yl)methyl)-1H-pyrazol-4-yl)methyl)amino)-7-((R)-1-methoxyethyl)-4,8-dimethyl-7,8-dihydropteridin-6(5H)-one] | < 300 |  |  | 31 |
| CO[C@H](C)[C@H]1C(=O)Nc2c(C)nc(NCc3cnn(Cc4ccc(F)cc4)c3)nc2N1C [Compound 658, (S)-2-(((1-(4-fluorobenzyl)-1H-pyrazol-4-yl)methyl)amino)-7-((R)-1-methoxyethyl)-4,8-dimethyl-7,8-dihydropteridin-6(5H)-one] | < 300 |  |  | 62 |
| Cc1nc(NC2CN(C(=O)c3ccc(Cl)nc3)C2)nc2c1NC(=O)[C@H](C(C)C)N2C [Compound 549, (S)-2-((1-(6-chloronicotinoyl)azetidin-3-yl)amino)-7-isopropyl-4,8-dimethyl-7,8-dihydropteridin-6(5H)-one] | 1000 to 5000 |  |  | 30 |
| Cc1nc(NCc2cnn(Cc3ccc(Cl)nc3)c2)nc2c1N(C)C(=O)[C@H](CCO)N2C [Compound 445, (7S)-2-(((1-((6-chloropyridin-3-yl)methyl)-1H-pyrazol-4-yl)methyl)amino)-7-(2-hydroxyethyl)-4,5,8-trimethyl-7,8-dihydropteridin-6(5H)-one] | 300 to 1000 |  |  | 98 |
| COCC[C@H]1C(=O)Nc2c(C)nc(NCc3cnn(Cc4cc(C(F)(F)F)nn4C)c3)nc2N1C [Compound 678, (S)-7-(2-methoxyethyl)-4,8-dimethyl-2-(((1-((1-methyl-3-(trifluoromethyl)-1H-pyrazol-5-yl)methyl)-1H-pyrazol-4-yl)methyl)amino)-7,8-dihydropteridin-6(5H)-one] | < 300 |  |  | 75 |
| Cc1nc(N[C@H]2C[C@@H](Cn3nccc3C(F)(F)F)C2)nc2c1NC(=O)[C@H](COC(C)(C)C)N2C [Compound 723, (S)-7-(tert-butoxymethyl)-4,8-dimethyl-2-((cis-3-((5-(trifluoromethyl)-1H-pyrazol-1-yl)methyl)cyclobutyl)amino)-7,8-dihydropteridin-6(5H)-one] | < 300 | 600 to 2000 | 60 to 600 |  |
| Cc1nc(N[C@H]2C[C@@H](Nc3ncc(C#N)cn3)C2)nc2c1NC(=O)[C@H](C(C)C)N2C [Compound 717, 2-((cis-3-(((S)-7-isopropyl-4,8-dimethyl-6-oxo-5,6,7,8-tetrahydropteridin-2-yl)amino)cyclobutyl)amino)pyrimidine-5-carbonitrile] | 1000 to 5000 | 2000 to 10000 | 60 to 600 |  |

Second part, led by results:

| IC50 [1] [nM] | EC50 (Colo-205 cells) [nM] | IC50 [3] [nM] | SMILES | Percent Remaining Activity at 8 hrs after Dosing [2] [%] |
| --- | --- | --- | --- | --- |
| < 300 |  |  | Cc1nc(NCc2cnn(Cc3ccnc(C(F)(F)F)c3)c2)nc2c1NC(=O)[C@H](C1CC1)N2C [Compound 455, (S)-7-cyclopropyl-4,8-dimethyl-2-(((1-((2-(trifluoromethyl)pyridin-4-yl)methyl)-1H-pyrazol-4-yl)methyl)amino)-7,8-dihydropteridin-6(5H)-one] | 63 |
| < 300 |  |  | Cc1nc(N[C@@H]2CCc3nn(Cc4ccc(C(F)(F)F)nc4)cc32)nc2c1NC(=O)[C@H](C(C)C)N2C [Compound 522, (S)-7-isopropyl-4,8-dimethyl-2-(((R)-2-((6-(trifluoromethyl)pyridin-3-yl)methyl)-2,4,5,6-tetrahydrocyclopenta[c]pyrazol-4-yl)amino)-7,8-dihydropteridin-6(5H)-one] | 91 |
| < 300 |  |  | Cc1nc(N[C@H]2C[C@@H](Nc3cnc(C(F)(F)F)cn3)C2)nc2c1NC(=O)[C@H](C(C)C)N2C [Compound 557, (S)-7-isopropyl-4,8-dimethyl-2-((cis-3-((5-(trifluoromethyl)pyrazin-2-yl)amino)cyclobutyl)amino)-7,8-dihydropteridin-6(5H)-one] | 20 |
| < 300 |  |  | Cc1nc(NCc2cnn(Cc3ccc(C(F)(F)F)o3)c2)nc2c1NC(=O)[C@H](C(C)C)N2C [Compound 518, (S)-7-isopropyl-4,8-dimethyl-2-(((1-((5-(trifluoromethyl)furan-2-yl)methyl)-1H-pyrazol-4-yl)methyl)amino)-7,8-dihydropteridin-6(5H)-one] | 21 |
| < 300 | < 600 | < 60 | Cc1nc(N[C@H]2C[C@@H](CNc3cnc(C(F)(F)F)cn3)C2)nc2c1NC(=O)[C@H](C(C)C)N2C [Compound 711, (S)-7-isopropyl-4,8-dimethyl-2-((cis-3-(((5-(trifluoromethyl)pyrazin-2-yl)amino)methyl)cyclobutyl)amino)-7,8-dihydropteridin-6(5H)-one] |  |
